# Results taken from the kinase profiling compilation of Christmann-Franck et al. (2016).
# How the values were obtained:
# Experiment in all cases: KINOMEscan competition binding
# Conditions in all cases: compound 10.0 µM
# [1] = target: IRAK4 (human) (UniProt Q9NWZ3)
# [2] = target: CDK2 (human) (UniProt P24941)
# [3] = target: PKN3 (M.tuberculosis) (UniProt Q6P5Z2)
# [4] = target: RPS6KA5 KD2 (human) (UniProt O75582)
# [5] = target: BMPR1B (human) (UniProt O00238)
# [6] = target: LATS1 (human) (UniProt O95835)
# [7] = target: STK24 (human) (UniProt Q9Y6E0)
# [8] = target: GRK7 (human) (UniProt Q8WTQ7)
# [9] = target: RPS6KA1 KD2 (human) (UniProt Q15418)
# [10] = target: MYLK3 (human) (UniProt Q32MK0)
# [11] = target: CDC2L2 (human) (UniProt Q9UQ88)
# Sequence of CDC2L2 (human) (Q9UQ88 whole entry, looked up): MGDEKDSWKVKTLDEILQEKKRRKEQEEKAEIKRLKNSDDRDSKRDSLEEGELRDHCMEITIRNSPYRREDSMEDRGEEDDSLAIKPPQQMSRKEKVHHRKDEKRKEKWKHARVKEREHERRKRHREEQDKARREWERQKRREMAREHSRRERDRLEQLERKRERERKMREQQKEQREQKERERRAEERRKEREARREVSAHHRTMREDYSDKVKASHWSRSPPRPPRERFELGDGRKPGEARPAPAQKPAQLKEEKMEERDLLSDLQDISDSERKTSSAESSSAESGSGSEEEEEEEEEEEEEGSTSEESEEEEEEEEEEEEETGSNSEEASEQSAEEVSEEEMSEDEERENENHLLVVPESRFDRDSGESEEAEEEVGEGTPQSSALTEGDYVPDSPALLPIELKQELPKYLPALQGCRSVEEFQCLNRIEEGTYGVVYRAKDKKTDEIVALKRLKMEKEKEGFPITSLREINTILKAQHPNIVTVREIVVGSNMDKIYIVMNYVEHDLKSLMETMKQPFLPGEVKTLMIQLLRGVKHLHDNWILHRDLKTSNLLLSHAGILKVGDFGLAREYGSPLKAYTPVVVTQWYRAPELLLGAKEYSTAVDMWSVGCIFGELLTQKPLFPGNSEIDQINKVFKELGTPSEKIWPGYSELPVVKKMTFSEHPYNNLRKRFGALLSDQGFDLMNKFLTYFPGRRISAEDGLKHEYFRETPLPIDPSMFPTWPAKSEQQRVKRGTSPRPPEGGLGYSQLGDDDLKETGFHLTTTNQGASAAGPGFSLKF
# [12] = target: CaMK1 (human) (UniProt Q14012)
# Sequence of CaMK1 (human) (Q14012 whole entry, looked up): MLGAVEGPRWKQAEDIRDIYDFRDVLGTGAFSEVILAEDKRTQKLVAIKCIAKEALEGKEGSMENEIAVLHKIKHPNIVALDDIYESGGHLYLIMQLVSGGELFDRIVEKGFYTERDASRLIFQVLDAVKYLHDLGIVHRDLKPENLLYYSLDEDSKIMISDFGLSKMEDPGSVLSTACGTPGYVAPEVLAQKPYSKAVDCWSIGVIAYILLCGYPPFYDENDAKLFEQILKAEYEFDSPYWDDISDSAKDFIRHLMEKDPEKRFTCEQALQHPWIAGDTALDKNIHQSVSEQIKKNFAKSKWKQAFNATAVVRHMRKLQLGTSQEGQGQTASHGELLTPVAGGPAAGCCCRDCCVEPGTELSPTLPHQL
# [13] = target: MET (human) (UniProt P08581)
# [14] = target: PDPK1 (human) (UniProt O15530)
# [15] = tested on: BMX (human), P51813 [V600E]
# [16] = target: MAK (human) (UniProt P20794)
# [17] = target: MKNK1 (human) (UniProt Q9BUB5)
# [18] = target: MAP3K12 (human) (UniProt Q12852)
# [19] = target: RPS6KA2 KD1 (human) (UniProt Q15349)
# [20] = target: MAP3K1 (human) (UniProt Q13233)
# [21] = target: PIP5K1C (human) (UniProt O60331)
# [22] = target: STK39 (human) (UniProt Q9UEW8)
# [23] = target: PHKG2 (human) (UniProt P15735)
# [24] = target: TIE1 (human) (UniProt P35590)
# Sequence of TIE1 (human) (P35590 whole entry, looked up): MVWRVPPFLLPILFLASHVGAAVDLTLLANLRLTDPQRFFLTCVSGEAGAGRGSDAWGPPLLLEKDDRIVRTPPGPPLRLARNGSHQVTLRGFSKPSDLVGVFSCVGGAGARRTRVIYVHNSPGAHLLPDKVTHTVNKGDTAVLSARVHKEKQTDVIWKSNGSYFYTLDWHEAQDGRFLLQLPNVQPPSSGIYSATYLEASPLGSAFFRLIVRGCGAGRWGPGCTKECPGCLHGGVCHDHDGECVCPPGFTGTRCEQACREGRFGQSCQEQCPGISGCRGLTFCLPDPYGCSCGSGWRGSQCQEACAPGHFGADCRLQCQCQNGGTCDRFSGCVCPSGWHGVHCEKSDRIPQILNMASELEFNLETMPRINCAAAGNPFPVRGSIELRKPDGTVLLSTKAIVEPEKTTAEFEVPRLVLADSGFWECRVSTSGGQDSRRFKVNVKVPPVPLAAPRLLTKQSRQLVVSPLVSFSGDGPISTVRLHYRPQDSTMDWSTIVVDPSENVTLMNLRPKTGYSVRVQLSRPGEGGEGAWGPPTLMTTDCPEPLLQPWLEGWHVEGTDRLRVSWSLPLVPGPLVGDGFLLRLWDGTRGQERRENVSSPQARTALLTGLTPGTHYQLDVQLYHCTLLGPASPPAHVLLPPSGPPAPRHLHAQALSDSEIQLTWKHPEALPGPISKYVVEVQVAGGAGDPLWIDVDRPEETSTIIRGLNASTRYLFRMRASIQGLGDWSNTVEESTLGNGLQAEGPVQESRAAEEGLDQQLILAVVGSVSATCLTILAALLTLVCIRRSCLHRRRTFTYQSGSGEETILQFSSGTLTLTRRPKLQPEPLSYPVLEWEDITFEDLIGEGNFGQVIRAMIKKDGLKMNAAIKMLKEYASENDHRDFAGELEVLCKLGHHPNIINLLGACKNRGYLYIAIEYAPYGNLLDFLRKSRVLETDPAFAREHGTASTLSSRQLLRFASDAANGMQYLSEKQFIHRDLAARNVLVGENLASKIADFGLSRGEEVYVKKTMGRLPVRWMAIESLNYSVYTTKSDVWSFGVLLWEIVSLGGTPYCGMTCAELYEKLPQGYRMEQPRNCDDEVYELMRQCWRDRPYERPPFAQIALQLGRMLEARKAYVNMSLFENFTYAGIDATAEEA
# [25] = target: STK10 (human) (UniProt O94804)
# Sequence of STK10 (human) (O94804 whole entry, looked up): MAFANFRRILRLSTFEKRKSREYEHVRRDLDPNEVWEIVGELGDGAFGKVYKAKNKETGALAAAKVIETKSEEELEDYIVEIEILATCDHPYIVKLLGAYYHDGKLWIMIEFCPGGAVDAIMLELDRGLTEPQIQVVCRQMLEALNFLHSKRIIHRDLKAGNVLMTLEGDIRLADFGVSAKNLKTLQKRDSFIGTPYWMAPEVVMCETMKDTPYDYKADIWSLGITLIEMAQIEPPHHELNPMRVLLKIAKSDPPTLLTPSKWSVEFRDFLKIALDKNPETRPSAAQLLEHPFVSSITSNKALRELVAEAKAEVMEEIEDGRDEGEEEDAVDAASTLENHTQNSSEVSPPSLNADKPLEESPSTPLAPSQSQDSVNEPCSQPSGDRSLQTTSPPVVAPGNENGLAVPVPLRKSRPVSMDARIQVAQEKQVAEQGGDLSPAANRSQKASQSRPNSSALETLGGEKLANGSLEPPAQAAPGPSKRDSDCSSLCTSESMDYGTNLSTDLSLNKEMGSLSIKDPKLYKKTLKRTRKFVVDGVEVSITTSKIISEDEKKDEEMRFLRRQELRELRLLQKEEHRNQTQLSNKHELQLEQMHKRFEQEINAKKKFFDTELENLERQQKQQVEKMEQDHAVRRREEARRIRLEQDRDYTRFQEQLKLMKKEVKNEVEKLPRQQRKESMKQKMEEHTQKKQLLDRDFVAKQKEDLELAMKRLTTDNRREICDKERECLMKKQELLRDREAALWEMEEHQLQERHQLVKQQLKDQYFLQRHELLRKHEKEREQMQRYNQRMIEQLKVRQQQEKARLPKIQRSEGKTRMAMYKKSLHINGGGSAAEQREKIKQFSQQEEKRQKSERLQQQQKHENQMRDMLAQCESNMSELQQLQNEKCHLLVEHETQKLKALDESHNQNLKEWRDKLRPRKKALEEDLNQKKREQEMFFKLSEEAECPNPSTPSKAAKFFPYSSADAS
# [26] = target: PRKX (human) (UniProt P51817)
# [27] = target: CDKL2 (human) (UniProt Q92772)
# [28] = target: CLK4 (human) (UniProt Q9HAZ1)
# Sequence of CLK4 (human) (Q9HAZ1 whole entry, looked up): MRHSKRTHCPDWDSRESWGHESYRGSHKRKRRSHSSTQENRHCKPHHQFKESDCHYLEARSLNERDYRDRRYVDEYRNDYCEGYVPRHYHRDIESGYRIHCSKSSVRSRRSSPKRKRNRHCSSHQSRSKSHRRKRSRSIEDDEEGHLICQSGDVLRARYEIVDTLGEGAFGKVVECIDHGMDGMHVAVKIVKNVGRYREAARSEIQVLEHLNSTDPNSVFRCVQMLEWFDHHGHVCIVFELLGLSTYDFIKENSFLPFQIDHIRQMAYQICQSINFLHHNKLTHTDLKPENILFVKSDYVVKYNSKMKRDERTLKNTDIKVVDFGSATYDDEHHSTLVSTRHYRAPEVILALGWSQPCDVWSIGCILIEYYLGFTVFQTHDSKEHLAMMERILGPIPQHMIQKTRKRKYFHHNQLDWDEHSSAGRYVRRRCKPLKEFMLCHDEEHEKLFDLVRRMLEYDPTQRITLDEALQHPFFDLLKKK
# [29] = target: SGK3 (human) (UniProt Q96BR1)
# [30] = tested on: RET (human), P07949 [V804L]
# [31] = target: RPS6KA1 KD1 (human) (UniProt Q15418)
# [32] = target: PIM3 (human) (UniProt Q86V86)
# [33] = target: EPHA6 (human) (UniProt Q9UF33)
# [34] = target: CSNK1A1 (human) (UniProt P48729)
# Sequence of CSNK1A1 (human) (P48729 whole entry, looked up): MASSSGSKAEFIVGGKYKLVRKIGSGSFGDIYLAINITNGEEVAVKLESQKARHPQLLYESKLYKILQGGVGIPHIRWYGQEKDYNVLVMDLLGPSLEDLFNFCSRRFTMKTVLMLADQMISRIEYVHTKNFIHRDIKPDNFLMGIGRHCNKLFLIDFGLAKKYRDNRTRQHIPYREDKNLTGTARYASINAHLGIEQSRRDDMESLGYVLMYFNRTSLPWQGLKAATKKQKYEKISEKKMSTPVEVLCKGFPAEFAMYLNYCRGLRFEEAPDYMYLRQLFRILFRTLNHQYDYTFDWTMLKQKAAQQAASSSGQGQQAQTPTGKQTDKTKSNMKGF
# [35] = tested on: LRRK2 (human), Q5S007 [G2019S]
# Sequence of PKN3 (M.tuberculosis) (Q6P5Z2 whole entry, looked up): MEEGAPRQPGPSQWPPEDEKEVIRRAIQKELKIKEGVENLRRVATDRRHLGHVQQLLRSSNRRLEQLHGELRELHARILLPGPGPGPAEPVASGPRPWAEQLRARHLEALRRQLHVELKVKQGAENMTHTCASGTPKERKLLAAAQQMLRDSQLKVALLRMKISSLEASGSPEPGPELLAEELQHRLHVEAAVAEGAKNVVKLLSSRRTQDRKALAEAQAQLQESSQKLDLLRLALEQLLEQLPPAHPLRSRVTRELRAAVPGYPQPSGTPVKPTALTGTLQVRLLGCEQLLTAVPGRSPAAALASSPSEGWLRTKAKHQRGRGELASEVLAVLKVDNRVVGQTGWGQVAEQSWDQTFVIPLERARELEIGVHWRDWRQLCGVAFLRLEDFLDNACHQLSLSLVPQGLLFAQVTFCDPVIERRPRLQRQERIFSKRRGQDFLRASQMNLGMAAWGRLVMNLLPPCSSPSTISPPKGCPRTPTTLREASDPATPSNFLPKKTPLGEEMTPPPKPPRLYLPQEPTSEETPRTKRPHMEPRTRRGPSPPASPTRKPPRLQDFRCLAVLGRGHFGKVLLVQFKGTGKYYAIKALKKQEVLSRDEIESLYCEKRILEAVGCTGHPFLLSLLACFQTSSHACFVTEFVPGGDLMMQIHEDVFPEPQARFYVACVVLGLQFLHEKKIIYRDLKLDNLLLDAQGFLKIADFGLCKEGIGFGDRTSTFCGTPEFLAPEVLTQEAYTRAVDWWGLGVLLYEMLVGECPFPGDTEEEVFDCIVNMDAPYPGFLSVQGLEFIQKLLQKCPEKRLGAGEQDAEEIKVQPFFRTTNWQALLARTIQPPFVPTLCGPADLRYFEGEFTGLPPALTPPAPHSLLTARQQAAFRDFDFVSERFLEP
Compound,"kinase still bound, per cent of control [1] [%]","kinase still bound, per cent of control [2] [%]","kinase still bound, per cent of control [3] [%]","kinase still bound, per cent of control [4] [%]","kinase still bound, per cent of control [5] [%]","kinase still bound, per cent of control [7] [%]","kinase still bound, per cent of control [8] [%]","kinase still bound, per cent of control [9] [%]","kinase still bound, per cent of control [10] [%]","kinase still bound, per cent of control [11] [%]","kinase still bound, per cent of control [12] [%]","kinase still bound, per cent of control [13] [%]","kinase still bound, per cent of control [16] [%]","kinase still bound, per cent of control [18] [%]","kinase still bound, per cent of control [19] [%]","kinase still bound, per cent of control [20] [%]","kinase still bound, per cent of control [21] [%]","kinase still bound, per cent of control [22] [%]","kinase still bound, per cent of control [23] [%]","kinase still bound, per cent of control [25] [%]",further results
CC1=C(C(=O)Nc2cc3cn[nH]c3cc2F)C(c2ccc(C(F)(F)F)cc2)CC(=O)N1 (centres undefined),97,79,92,87,65,52,75,83,92,96,93,51,100,69,95,90,92,86,92,100,"kinase still bound, per cent of control [6]: 60%; kinase still bound, per cent of control [14]: 100%; kinase still bound, per cent of control [15]: 87%; kinase still bound, per cent of control [17]: 100%; kinase still bound, per cent of control [24]: 75%; kinase still bound, per cent of control [26]: 14%; kinase still bound, per cent of control [27]: 94%; kinase still bound, per cent of control [28]: 100%; kinase still bound, per cent of control [29]: 100%; kinase still bound, per cent of control [30]: 39%; kinase still bound, per cent of control [31]: 72%; kinase still bound, per cent of control [32]: 92%; kinase still bound, per cent of control [33]: 95%; kinase still bound, per cent of control [34]: 86%; kinase still bound, per cent of control [35]: 70%"
CCN1CCN(Cc2ccc(NC(=O)c3ccc(C)c(/C=C/c4cnc5[nH]ccc5c4OC)c3)cc2C(F)(F)F)CC1,48,96,89,100,14,20,77,20,100,5.4,30,40,100,22,2.7,71,84,100,100,0,"kinase still bound, per cent of control [6]: 32%; kinase still bound, per cent of control [14]: 65%; kinase still bound, per cent of control [15]: 0.05%; kinase still bound, per cent of control [17]: 68%; kinase still bound, per cent of control [24]: 4.6%; kinase still bound, per cent of control [26]: 75%; kinase still bound, per cent of control [27]: 1.6%; kinase still bound, per cent of control [28]: 100%; kinase still bound, per cent of control [29]: 38%; kinase still bound, per cent of control [30]: 0.1%; kinase still bound, per cent of control [31]: 31%; kinase still bound, per cent of control [32]: 100%; kinase still bound, per cent of control [33]: 0%; kinase still bound, per cent of control [34]: 87%; kinase still bound, per cent of control [35]: 18%"
N#Cc1cc(-c2ccnc(Nc3ccc(-n4cnc(-c5cccnc5)n4)cc3)n2)cc(N2CCOCC2)c1,100,30,6.3,100,28,70,70,77,100,25,83,24,49,63,73,100,100,100,81,39,"kinase still bound, per cent of control [6]: 100%; kinase still bound, per cent of control [14]: 100%; kinase still bound, per cent of control [15]: 72%; kinase still bound, per cent of control [17]: 100%; kinase still bound, per cent of control [24]: 30%; kinase still bound, per cent of control [26]: 55%; kinase still bound, per cent of control [27]: 2%; kinase still bound, per cent of control [28]: 7.2%; kinase still bound, per cent of control [29]: 100%; kinase still bound, per cent of control [30]: 100%; kinase still bound, per cent of control [31]: 31%; kinase still bound, per cent of control [32]: 78%; kinase still bound, per cent of control [33]: 72%; kinase still bound, per cent of control [34]: 60%; kinase still bound, per cent of control [35]: 53%"
CC(=O)c1c(C)c2cnc(Nc3ccc(N4CCNCC4)cn3)nc2n(C2CCCC2)c1=O,39,20,1,15,50,16,13,38,7.6,78,35,36,76,47,14,87,35,6.8,5,23,"kinase still bound, per cent of control [26]: 90%; kinase still bound, per cent of control [27]: 6.8%; kinase still bound, per cent of control [28]: 2%; kinase still bound, per cent of control [29]: 53%; kinase still bound, per cent of control [30]: 65%; kinase still bound, per cent of control [31]: 12%; kinase still bound, per cent of control [32]: 82%; kinase still bound, per cent of control [33]: 96%; kinase still bound, per cent of control [35]: 39%"
